The values that follow come from US20180368410A1, “MICROBIOCIDAL OXADIAZOLE DERIVATIVES” (SYNGENTA PARTICIPATIONS AG, priority 2015, published 2018).

For data set [1], the system named is Puccinia recondita f. Sp. Tritici. As to the kind of experiment: Puccinia recondita f. sp. tritici / wheat / leaf disc preventative (brown rust). It counts as in vivo, Puccinia recondita f. sp. tritici on wheat cv. Kanzler. Conditions: foliar, 200 ppm in the applied formulation, inoculated 1 day after application, assessed 7 to 9 days after application, vs untreated control leaf disks, read-out: disease control. The essentials:
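Wheat cv. Kanzler leaf segments on agar were sprayed with compound (DMSO stock diluted with 0.025% Tween20) 1 day before inoculation with spores. Segments were held at 19 °C, 75% rh, 12 h light/dark. Percent disease control versus untreated was scored 7–9 days after application.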

Data set [2] has as its system Puccinia recondita f. Sp. Triticil. As to the kind of experiment: Puccinia recondita f. sp. tritici / wheat / leaf disc curative (brown rust). In kind it is in vivo, Puccinia recondita f. sp. tritici on wheat cv. Kanzler. Conditions: foliar, 200 ppm in the applied formulation, applied 1 day after inoculation, assessed 6 to 8 days after application, vs untreated control leaf disks, read-out: disease control. The essentials:
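Segments of wheat (cultivar Kanzler) sit on agar and are spore-inoculated first; after one day in darkness at 19° C and 75% RH the diluted formulated compound is sprayed on. A 12 h photoperiod follows at the same temperature and humidity before disease is scored against untreated controls.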

The subject of data set [3] is Phakopsora pachyrhizi. The experiment in a line: Phakopsora pachyrhizi / soybean / leaf disc preventative (Asian soybean rust). It counts as in vivo, Phakopsora pachyrhizi on soybean. Conditions: foliar, 200 ppm in the applied formulation, inoculated one day after application, assessed 12 to 14 days after application, vs untreated control leaf disks, read-out: disease control. The essentials: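 Read-out is percent disease control relative to untreated check discs, assessed once untreated discs show adequate disease, 12 to 14 days after application. Compounds, tested at 200 ppm in the applied formulation, are sprayed onto soybean leaf discs one day before inoculation with a spore suspension.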

The test system of data set [4] is Glomerella Lacenarium (Colletotrichum lacenarium). As to the kind of experiment: Glomerella lagenarium (Colletotrichum lagenarium) liquid culture / cucumber / preventative (anthracnose). Conditions: 20 ppm in the applied formulation, liquid culture in PDB, 24° C., inhibition of growth measured photometrically 3 to 4 days after application, vs untreated control, read-out: disease control. It counts as cell-based. The essentials:
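Test compound in DMSO is placed in a microtiter plate, then potato dextrose broth containing conidia from cryogenic storage is added. Incubation runs at 24° C., and growth inhibition is read photometrically after 3 to 4 days.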

Data set [5] deals with Uromyces viciae-Fabael. The experiment in a line: Uromyces viciae-fabae / field bean / leaf disc preventative (faba-bean rust). It counts as in vivo, Uromyces viciae-fabae on field bean. Conditions: foliar, 288 h, 100 ppm in the applied formulation, inoculated two hours after application, assessed 12 days after application, vs untreated control leaf discs, read-out: disease control. As for the experimental part: Leaf disks or leaf segments of various plant species are cut from plants grown in a greenhouse. The cut leaf disks or segments are placed in multiwell plates (24-well format) onto water agar. The leaf disks are sprayed with a test solution before (preventative) or after (curative) inoculation. Compounds to be tested are prepared as DMSO solutions (max. 10 mg/ml) which are diluted to the appropriate concentration with 0.025% Tween20 just before spraying. The inoculated leaf disks or segments are incubated under defined conditions (temperature, relative humidity, light, etc.) according to the respective test system. A single evaluation of disease level is carried out 3 to 14 days after inoculation, depending on the pathosystem. Percent disease control relative to the untreated check leaf disks or segments is then calculated.
Field bean leaf discs are placed on water agar in multiwell plates (96-well format) and 10 μl of the formulated test compound diluted in acetone and a spreader pipetted onto the leaf disc. Two hours after application leaf discs are inoculated by spraying a spore suspension on the lower leaf surface. The leaf discs are incubated in a climate cabinet at 22° C. with 18 hour day and 70% relative humidity. The activity of a compound is assessed as percent disease control compared to untreated when an appropriate level of disease damage appears in untreated check leaf disks (12 days after application).
The following compounds at 100 ppm in the applied formulation give at least 80% disease control in this test when compared to untreated control leaf discs under the same conditions, which show extensive disease development.

The term melting point denotes the temperature, or range, at which the solid turns liquid.

Regarding `O=C(NCc1ccc(-c2noc(C(F)(F)F)n2)cc1)C1CCOC1` (centres unmarked) [Compound 1.18, N-[[4-[5-(trifluoromethyl)-1,2,4-oxadiazol-3-yl]phenyl]methyl] tetrahydrofuran-3-carboxamide], the pest or weed control at 200 ppm in data set [1], in data set [2] and in data set [3] was ≥ 80% in each case. In data set [4], the inhibition of growth at 20 ppm is ≥ 80%. For the same molecule, the pest or weed control at 100 ppm in data set [5] was ≥ 80%.
As to `O=C(Cc1ccccc1)NCc1ccc(-c2noc(C(F)(F)F)n2)cc1` [Compound 1.26, 2-phenyl-N-[[4-[5-(trifluoromethyl)-1,2,4-oxadiazol-3-yl]phenyl]methyl]acetamide], the pest or weed control at 200 ppm in data set [1], in data set [2] and in data set [3] was ≥ 80% each time. Also, the inhibition of growth at 20 ppm in data set [4] was ≥ 80%. In addition, in data set [5], the pest or weed control at 100 ppm was ≥ 80%.
As for `O=C(CC1CC1(F)F)NCc1ccc(-c2noc(C(F)(F)F)n2)cc1` (centres unmarked) [Compound 1.32, 2-(2,2-difluorocyclopropyl)-N-[[4-[5-(trifluoromethyl)-1,2,4-oxadiazol-3-yl]phenyl]methyl]acetamide], the pest or weed control at 200 ppm in data set [1], in data set [2] and in data set [3] was ≥ 80% each time. The inhibition of growth at 20 ppm in data set [4] was ≥ 80%. The pest or weed control at 100 ppm in data set [5] is ≥ 80%.
Molecule `O=C(NCc1ccc(-c2noc(C(F)(F)F)n2)c(F)c1F)C1CC1` [Compound 1.55, N-[[2,3-difluoro-4-[5-(trifluoromethyl)-1,2,4-oxadiazol-3-yl]phenyl]methyl] cyclopropanecarboxamide] showed a melting point of 144 to 150 °C. For the same molecule, the pest or weed control at 200 ppm in data set [1] is ≥ 80%. Besides, the pest or weed control at 200 ppm in data set [2] was ≥ 80%. Also, the pest or weed control at 200 ppm in data set [3] is ≥ 80%. Further, the inhibition of growth at 20 ppm in data set [4] is ≥ 80%.
The molecule `O=C(NCc1ccc(-c2noc(C(F)(F)F)n2)c(F)c1F)c1ccccc1Cl` [Compound 1.56, 2-chloro-N-[[2,3-difluoro-4-[5-(trifluoromethyl)-1,2,4-oxadiazol-3-yl]phenyl]methyl] benzamide] returned a melting point of 144 to 150 °C. Further, the pest or weed control at 200 ppm in data set [1] was ≥ 80%. In addition, the pest or weed control at 200 ppm in data set [3] was ≥ 80%. Also, the inhibition of growth at 20 ppm in data set [4] was ≥ 80%.
`O=C(NCc1ccc(-c2noc(C(F)(F)F)n2)c(F)c1)c1ccccc1Cl` [Compound 1.58, 2-chloro-N-[[3-fluoro-4-[5-(trifluoromethyl)-1,2,4-oxadiazol-3-yl]phenyl]methyl] benzamide] showed a melting point of 146 to 148 °C. In addition, the pest or weed control at 200 ppm in data set [1] was ≥ 80%. Further, the pest or weed control at 200 ppm in data set [3] is ≥ 80%. Further, the inhibition of growth at 20 ppm in data set [4] is ≥ 80%.
As to `O=C(NCc1ccc(-c2noc(C(F)(F)F)n2)nc1)C1CCCO1` (centres unmarked) [Compound 1.94, N-[[6-[5-(trifluoromethyl)-1,2,4-oxadiazol-3-yl]-3-pyridyl]methyl] tetrahydrofuran-2-carboxamide], the melting point fell in the range of 84 to 88 °C. Further, the pest or weed control at 200 ppm in data set [2] is ≥ 80%.
`O=C(NCc1ccc(-c2noc(C(F)(F)F)n2)nc1)c1ccccc1Cl` [Compound 1.95, 2-chloro-N-[[6-[5-(trifluoromethyl)-1,2,4-oxadiazol-3-yl]-3-pyridyl]methyl] benzamide]: the melting point lay in the range of 106 to 113 °C. Besides, the pest or weed control at 200 ppm in data set [1] was ≥ 80%.
`O=C(NCCc1ccc(-c2noc(C(F)(F)F)n2)cc1)c1ccccc1Cl` [Compound 1.99, 2-chloro-N-[2-[4-[5-(trifluoromethyl)-1,2,4-oxadiazol-3-yl]phenyl]ethyl]benzamide] showed a melting point of 133 to 140 °C. Besides, the pest or weed control at 200 ppm in data set [1] is ≥ 80%. In data set [3], the pest or weed control at 200 ppm was ≥ 80%.
